The numbers were not newly measured in patent US20250041489A1, “A Drug Coating Formulation for a Sirolimus Coated Balloon Catheter” (C. R. Bard, Inc., priority 2021, published 2025), which cites them from elsewhere.

The conditions of the series: compared to amorphous sirolimus.

Take `CO[C@H]1C[C@@H]2CC[C@@H](C)[C@@](O)(O2)C(=O)C(=O)N2CCCC[C@H]2C(=O)O[C@H]([C@H](C)C[C@@H]2CC[C@@H](O)[C@H](OC)C2)CC(=O)[C@H](C)/C=C(\C)[C@@H](O)[C@@H](OC)C(=O)[C@H](C)C[C@H](C)/C=C/C=C/C=C/1C` [crystalline sirolimus, sirolimus]: the “Half-life of sirolimus on the surface of a balloon” value is on record as “four weeks”.
